Consider 51 molecules from patent US11414431B2, “Substituted pyrazolo[1,5-a]pyrimidines as TYK2 inhibitors” (Nimbus Lakshmi, Inc., priority 2018, dated 2022).

As a reminder, the IC50 is the concentration needed to halve the response being measured. A high value points to lower potency.

The first assay relates to IL-12 induced STAT4 phosphorlyation mediated by TYK2/JAK2. The experiment in a line: IL-12 Induced pSTAT4 in Human PBMC. It is filed as cell-based. The following applies: 1.7 ng/mL IL-12 for 30 minutes. Put shortly: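 Thawed human PBMC pre-incubated with compound 1 hr at 37° C (0.1% DMSO final), then stimulated 30 minutes with IL-12 at 1.7 ng/mL final. pSTAT4 and total STAT4 measured in cell lysates with MSD reagents.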
As to `CNc1cc(-c2cnc3n([C@@H]4COC[C@H]4O)cccc2-3)nc2c(C(=O)NC3CC[C@@H]3F)cnn12` (stereo partly drawn) [Compound I-827], the IC50 was under 0.1 µM.
Molecule `CNc1cc(-c2cnc3n([C@H]4COC[C@@H]4O)cccc2-3)nc2c(C(=O)N[C@H]3CC[C@@H]3F)cnn12` [Compound I-828] yielded a half-inhibitory concentration (IC50) of under 0.1 µM.
For `CNc1cc(-c2cnc3n([C@@H]4COC[C@H]4O)cccc2-3)nc2c(C(=O)N[C@H]3CC[C@@H]3F)cnn12` [Compound I-830], the half-maximal inhibitory concentration (IC50) was under 0.1 µM.
As to `CNc1cc(-c2cnc3n([C@H]4COC[C@@H]4OC)cccc2-3)nc2c(C(=O)N[C@H]3CC[C@@H]3F)cnn12` [Compound I-833], the IC50 was under 0.1 µM.
In the case of `CNc1cc(-c2cnc3n([C@@H]4COC[C@H]4OC)cccc2-3)nc2c(C(=O)NC3CC[C@@H]3F)cnn12` (stereo partly drawn) [Compound I-835], the IC50 was under 0.1 µM.
The same measure, in the same setting: the value for `CNc1cc(-c2cnc3n([C@H]4COC[C@@H]4OC)cccc2-3)nc2c(C(=O)NC3CC[C@H]3F)cnn12` (stereo partly drawn) [Compound I-838] was under 0.1 µM; that for `CNc1cc(-c2cnc3n([C@H]4COC[C@@H]4OC)cccc2-3)nc2c(C(=O)N[C@H]3CC[C@H]3F)cnn12` [Compound I-839] was under 0.1 µM; that for `CNc1cc(-c2cnc3n([C@H]4COC[C@@H]4OC)cccc2-3)nc2c(C(=O)N[C@@H]3CC[C@@H]3F)cnn12` [Compound I-840] was under 0.1 µM.
In turn, `CNc1cc(-c2cnc3n([C@@H]4COC[C@H]4OC)cccc2-3)nc2c(C(=O)NC3CC[C@H]3F)cnn12` (stereo partly drawn) [Compound I-841] came in with an IC50 of under 0.1 µM.
Molecule `CNc1cc(-c2cnc3n([C@@H]4CCOC[C@H]4O)cccc2-3)nc2c(C(=O)N[C@H]3CC[C@@H]3F)cnn12` [Compound I-848] came in with an IC50 of under 0.1 µM.
The same measure, in the same setting: the value for `CNc1cc(-c2cnc3n([C@@H]4COC[C@H]4OC)cccc2-3)nc2c(C(=O)NC3CC[C@H]3O)cnn12` (stereo partly drawn) [Compound I-865] was 0.5 to 1 µM.
`CNc1cc(-c2cnc3n([C@@H]4COC[C@H]4OC)cccc2-3)nc2c(C(=O)N[C@@H]3CC[C@@H]3O)cnn12` [Compound I-867] returned an IC50 of 0.1 to 0.5 µM.
The same measure, in the same setting: the value for `CNc1cc(-c2cnc3n([C@@H]4COC[C@H]4O)cccc2-3)nc2c(C(=O)N[C@@H]3CC[C@H]3OC)cnn12` [Compound I-876] was under 0.1 µM; that for `CNc1cc(-c2cnc3n([C@H]4COC[C@@H]4O)cccc2-3)nc2c(C(=O)NC3CC[C@@H]3OC)cnn12` (stereo partly drawn) [Compound I-877] was 0.1 to 0.5 µM.
In the case of `CNc1cc(-c2cnc3n([C@H]4COC[C@@H]4O)cccc2-3)nc2c(C(=O)N[C@@H]3CC[C@H]3OC)cnn12` [Compound I-878], the half-inhibitory concentration (IC50) is under 0.1 µM.
Molecule `CNc1cc(-c2cnc3n([C@H]4COC[C@@H]4OC)cccc2-3)nc2c(C(=O)NC3CC[C@@H]3OC)cnn12` (stereo partly drawn) [Compound I-880] registered a concentration for half-maximal inhibition (IC50) of under 0.1 µM.
For the molecule `CNc1cc(-c2cnc3n([C@H]4COC[C@@H]4OC)cccc2-3)nc2c(C(=O)N[C@@H]3CC[C@H]3OC)cnn12` [Compound I-881], the half-inhibitory concentration (IC50) was under 0.1 µM.
Same read-out and setting: the value for `CNc1cc(-c2cnc3n([C@@H]4COC[C@H]4OC)cccc2-3)nc2c(C(=O)NC3CC[C@@H]3OC)cnn12` (stereo partly drawn) [Compound I-883] was under 0.1 µM; that for `CNc1cc(-c2cnc3n([C@@H]4COC[C@H]4OC)cccc2-3)nc2c(C(=O)N[C@@H]3CC[C@H]3OC)cnn12` [Compound I-884] was under 0.1 µM; that for `CNc1cc(-c2cnc3n([C@@H]4CCOC[C@H]4OC)cccc2-3)nc2c(C(=O)N[C@@H]3CC[C@H]3OC)cnn12` [Compound I-896] was under 0.1 µM.
The same measure, in the same setting: the value for `CNc1cc(-c2cnc3n([C@H]4COC[C@@H]4O)cccc2-3)nc2c(C(=O)NC3CCC3(F)F)cnn12` (stereo partly drawn) [Compound I-898] was under 0.1 µM.
Still for that read-out and setting: the value for `CNc1cc(-c2cnc3n([C@@H]4COC[C@H]4O)cccc2-3)nc2c(C(=O)NC3CCC3(F)F)cnn12` (stereo partly drawn) [Compound I-901] was under 0.1 µM; that for `CNc1cc(-c2cnc3n([C@@H]4COC[C@H]4O)cccc2-3)nc2c(C(=O)N[C@H]3CCC3(F)F)cnn12` [Compound I-902] was under 0.1 µM; that for `CNc1cc(-c2cn([C@H]3C[C@@H](COC)C3)c3ncccc23)nc2c(C(=O)NC3CC[C@H]3O)cnn12` (stereo partly drawn) [Compound I-912] was under 0.1 µM.
`CNc1cc(-c2cn([C@H]3C[C@@H](COC)C3)c3ncccc23)nc2c(C(=O)N[C@@H]3CC[C@@H]3O)cnn12` [Compound I-914] had an IC50 of under 0.1 µM.
On the same count and under the same terms, the value for `CNc1cc(-c2cn([C@H]3[C@@H]4COC[C@@H]43)c3ncccc23)nc2c(C(=O)N[C@H]3CC[C@@H]3O)cnn12` [Compound I-915] was under 0.1 µM; that for `CNc1cc(-c2cn([C@H]3CCOC[C@@H]3F)c3ncccc23)nc2c(C(=O)N[C@H]3CC[C@H]3O)cnn12` [Compound I-916] was 0.1 to 0.5 µM.
Same read-out and setting: the value for `CNc1cc(-c2cn([C@@H]3CCOC[C@H]3F)c3ncccc23)nc2c(C(=O)N[C@H]3CC[C@H]3O)cnn12` [Compound I-918] was under 0.1 µM; that for `CNc1cc(-c2cn(CC(=O)N(C)C)c3ncccc23)nc2c(C(=O)N[C@H]3CC[C@@H]3OC)cnn12` [Compound I-921] was under 0.1 µM; that for `CNc1cc(-c2cn(CCOC)c3ncccc23)nc2c(C(=O)N[C@H]3CC[C@@H]3OC)cnn12` [Compound I-923] was under 0.1 µM.
`CNc1cc(-c2cn(CC(=O)N3CCC3)c3ncccc23)nc2c(C(=O)N[C@H]3CC[C@@H]3OC)cnn12` [Compound I-929] returned an IC50 of 0.1 to 0.5 µM.
Same read-out and setting: the value for `CNc1cc(-c2cn(CC(=O)N3CCCC3)c3ncccc23)nc2c(C(=O)NC3CC[C@@H]3OC)cnn12` (stereo partly drawn) [Compound I-931] was 0.1 to 0.5 µM; that for `CNc1cc(-c2cn([C@@H]3CCOC[C@H]3F)c3ncccc23)nc2c(C(=O)N[C@H]3COC[C@H]3O)cnn12` [Compound I-937] was 0.1 to 0.5 µM; that for `CNc1cc(-c2cnc3n([C@H]4CCOC[C@H]4F)cccc2-3)nc2c(C(=O)NC3CC[C@H]3O)cnn12` (stereo partly drawn) [Compound I-942] was 0.5 to 1 µM.
The same measure, in the same setting: the value for `CNc1cc(-c2cnc3n([C@@H]4CN(C)C[C@H]4OC)cccc2-3)nc2c(C(=O)NC3CC[C@@H]3OC)cnn12` (stereo partly drawn) [Compound I-943] was under 0.1 µM.
The same measure, in the same setting: the value for `CNc1cc(-c2cnc3n([C@@H]4CN(C)C[C@H]4OC)cccc2-3)nc2c(C(=O)N[C@H]3CC[C@@H]3OC)cnn12` [Compound I-944] was under 0.1 µM; that for `CNc1cc(-c2cnc3n([C@H]4CN(C)C[C@@H]4OC)cccc2-3)nc2c(C(=O)N[C@H]3CC[C@@H]3OC)cnn12` [Compound I-947] was under 0.1 µM.
In turn, `CNc1cc(-c2cn(CC(=O)N3CCOCC3)c3ncccc23)nc2c(C(=O)N[C@H]3CC[C@@H]3OC)cnn12` [Compound I-963] had a half-maximal inhibitory concentration (IC50) of 0.1 to 0.5 µM.
Still for that read-out and setting: the value for `CNc1cc(-c2cn(CC(=O)N3CCCC3)c3ncccc23)nc2c(C(=O)N[C@H]3CC[C@@H]3OC)cnn12` [Compound I-965] was under 0.1 µM; that for `CNc1cc(Nc2cccn(C3CCOCC3)c2=O)nc2c(C(=O)N[C@@H]3CC[C@]3(O)C(F)(F)F)cnn12` [Compound I-976] was 0.1 to 0.5 µM; that for `CNc1cc(-c2cnc3n(CC(=O)N4CCC4)cccc2-3)nc2c(C(=O)N[C@H]3CC[C@@H]3OC)cnn12` [Compound I-977] was over 1 µM.
For the molecule `CNc1cc(-c2cnc3n(CC(C)(C)O)cccc2-3)nc2c(C(=O)N[C@H]3CC[C@@H]3OC)cnn12` [Compound I-983], the IC50 was under 0.1 µM.
On the same count and under the same terms, the value for `CNc1cc(-c2cnc3n(CCCN4CCOCC4)cccc2-3)nc2c(C(=O)N[C@H]3CC[C@@H]3OC)cnn12` [Compound I-990] was under 0.1 µM.
Consider `CNc1cc(-c2cn(C(C)C)c3nnccc23)nc2c(C(=O)NC3CC[C@@H]3OC)cnn12` (stereo partly drawn) [Compound I-993], for which the 50% inhibitory concentration (IC50) was under 0.1 µM.
Same read-out and setting: the value for `CNc1cc(-c2cnc3n([C@@H]4CCOC4)cccc2-3)nc2c(C(=O)NC3CC[C@@H]3OC)cnn12` (stereo partly drawn) [Compound I-995] was under 0.1 µM.
In the case of `CO[C@H]1CCC1NC(=O)c1cnn2c(N)cc(-c3cnc4n([C@H]5COC[C@@H]5OC)cccc3-4)nc12` (stereo partly drawn) [Compound I-999], the half-maximal inhibitory concentration (IC50) is 0.1 to 0.5 µM.

Still in this assay, the particulars now being: 0.5 h, 1.7 ng/mL IL-12 for 30 minutes.
Molecule `CNc1cc(-c2cnc3n([C@H]4COC[C@@H]4O)cccc2-3)nc2c(C(=O)NC3CC[C@@H]3F)cnn12` (stereo partly drawn) [Compound I-826, N-((trans-1,2)-2-Fluorocyclobutyl)-5-(7-((3S,4R)-4-hydroxytetrahydrofuran-3-yl)-7H-pyrrolo[2,3-b]pyridin-3-yl)-7-(methylamino)pyrazolo[1,5-a]pyrimidine-3-carboxamide] yielded an IC50 of under 0.1 µM.
Still for that read-out and setting: the value for `CNc1cc(-c2cn([C@H]3C[C@@H](OC)C3)c3ncccc23)nc2c(C(=O)NC3CC[C@@H]3OC)cnn12` (stereo partly drawn) [Compound I-925, N-(2-methoxycyclobutyl)-5-(1-((1s,3S)-3-methoxycyclobutyl)-1H-pyrrolo[2,3-b]pyridin-3-yl)-7-(methylamino)pyrazolo[1,5-a]pyrimidine-3-carboxamide] was under 0.1 µM; that for `CNc1cc(-c2cn([C@H]3C[C@@H](COC)C3)c3ncccc23)nc2c(C(=O)NC3CC[C@@H]3OC)cnn12` (stereo partly drawn) [Compound I-932, N-(2-methoxycyclobutyl)-5-(1-((1s,3R)-3-(methoxymethyl)cyclobutyl)-1H-pyrrolo[2,3-b]pyridin-3-yl)-7-(methylamino)pyrazolo[1,5-a]pyrimidine-3-carboxamide] was under 0.1 µM.
The molecule `CNc1cc(-c2cnc3n([C@@H]4CCOC[C@@H]4F)cccc2-3)nc2c(C(=O)NC3CC[C@H]3O)cnn12` (stereo partly drawn) [Compound I-939, 5-(7-((3R,4R)-3-fluorotetrahydro-2H-pyran-4-yl)-7H-pyrrolo[2,3-b]pyridin-3-yl)-N-((cis-1,2)-2-hydroxycyclobutyl)-7-(methylamino)pyrazolo[1,5-a]pyrimidine-3-carboxamide] yielded a half-maximal inhibitory concentration (IC50) of 0.1 to 0.5 µM.
On the same count and under the same terms, the value for `CNc1cc(-c2cnc3n([C@H]4CCOC4)cccc2-3)nc2c(C(=O)NC3CC[C@@H]3OC)cnn12` (stereo partly drawn) [Compound I-994, N-(2-methoxycyclobutyl)-7-(methylamino)-5-(7-((S)-tetrahydrofuran-3-yl)-7H-pyrrolo[2,3-b]pyridin-3-yl)pyrazolo[1,5-a]pyrimidine-3-carboxamide] was under 0.1 µM.
